Results published in ChEMBL document CHEMBL1131958, “Synthesis of bisquinolines and their in vitro ability to produce methemoglobin in canine hemolysate” (1999).
Activity calls are given as the source filed them. No cut-off for these calls is given here.

Columns and labels:
Canis familiaris [1] = species: Canis familiaris; assay: In vitro effect on methemoglobin formation in blood of dog at 5 mM concentration; assay type: functional, Canis lupus familiaris
Canis familiaris [2] = species: Canis familiaris; assay: In vitro effect on methemoglobin formation in blood of dog at 1 mM concentration; assay type: functional, Canis lupus familiaris
Canis familiaris [3] = species: Canis familiaris; assay: In vitro effect on methemoglobin formation in blood of dog at 1 mM concentration; Nil; assay type: functional; conditions: Canis lupus familiaris
Canis familiaris [4] = species: Canis familiaris; assay: In vitro effect on methemoglobin formation in blood of dog at 5 mM concentration; Nil; assay type: functional; conditions: Canis lupus familiaris

| SMILES | Methemoglobin (Canis familiaris [1]) [%] | Methemoglobin (Canis familiaris [2]) [%] | Methemoglobin (Canis familiaris [3]) | Methemoglobin (Canis familiaris [4]) | Methemoglobin (Canis familiaris [1]; Canis lupus familiaris) |
| --- | --- | --- | --- | --- | --- |
| COc1cc(NC(C)CCCN)c2ncccc2c1 (stereo not drawn) [PRIMAQUINE] | 87.6 | 11.52 |  |  |  |
| Clc1ccc2c(NCCCCNc3ccnc4cc(Cl)ccc34)ccnc2c1 | 90.8 | 29.5 |  |  |  |
| O=[N+]([O-])c1cc2c(NCCCCNc3ccnc4cc(Cl)c([N+](=O)[O-])cc34)ccnc2cc1Cl | 6.42 |  | Nil |  |  |
| O=C(O)C(CCCCNc1ccnc2cc(Cl)ccc12)Nc1ccnc2cc(Cl)ccc12 (stereo not drawn) |  |  | Nil | Nil |  |
| Clc1ccc2c(NCCN3CCN(c4ccnc5cc(Cl)ccc45)CC3)ccnc2c1 |  |  | Nil |  | Nil |
| Clc1ccc2c(NCCNCCCCNCCNc3ccnc4cc(Cl)ccc34)ccnc2c1 | 3 |  | Nil |  |  |
| O=C(O)C(CCCNc1ccnc2cc(Cl)ccc12)Nc1ccnc2cc(Cl)ccc12 (stereo not drawn) | 6.89 |  | Nil |  |  |
| CCN(CC)CCCC(C)Nc1ccnc2cc(Cl)ccc12 (stereo not drawn) |  |  | inactive | inactive |  |
| N/C(=N\CCCC(Nc1ccnc2cc(Cl)ccc12)C(=O)O)Nc1ccnc2cc(Cl)ccc12 (stereo not drawn) | 1.5 |  | Nil |  |  |
